# Patent publication US20230089867A1, “CYCLIC PENTAMER COMPOUNDS AS PROPROTEIN CONVERTASE SUBTILISIN/KEXIN TYPE 9 (PCSK9) INHIBITORS FOR THE TREATMENT OF METABOLIC DISORDER” (Novartis AG, priority 2018, published 2023)
# Biological target: human PCSK9 (Homo sapiens, UniProt Q8NBP7)
# Assay: PCSK9 ligand binding TR-FRET assay (interference with binding of human PCSK9 to human LDLR)
# Details: for Max % inhibition: PCSK9 FRET assay, efficacy (Amax), 100% = 1 uM unlabeled human PCSK9, 0% = DMSO; for IC50: TR-FRET, human PCSK9 Alexa Fluor 647 / human LDLR extracellular domain-Europium Kryptate, read-out: PCSK9 FRET Assay IC50
# Summary of the method: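 Threefold compound dilutions were pre-incubated 30 min with PCSK9, after which 4 nM Europium Kryptate-tagged human LDLR ectodomain was added for a further 2 h.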
# Sequence of human PCSK9 (Q8NBP7 153-692): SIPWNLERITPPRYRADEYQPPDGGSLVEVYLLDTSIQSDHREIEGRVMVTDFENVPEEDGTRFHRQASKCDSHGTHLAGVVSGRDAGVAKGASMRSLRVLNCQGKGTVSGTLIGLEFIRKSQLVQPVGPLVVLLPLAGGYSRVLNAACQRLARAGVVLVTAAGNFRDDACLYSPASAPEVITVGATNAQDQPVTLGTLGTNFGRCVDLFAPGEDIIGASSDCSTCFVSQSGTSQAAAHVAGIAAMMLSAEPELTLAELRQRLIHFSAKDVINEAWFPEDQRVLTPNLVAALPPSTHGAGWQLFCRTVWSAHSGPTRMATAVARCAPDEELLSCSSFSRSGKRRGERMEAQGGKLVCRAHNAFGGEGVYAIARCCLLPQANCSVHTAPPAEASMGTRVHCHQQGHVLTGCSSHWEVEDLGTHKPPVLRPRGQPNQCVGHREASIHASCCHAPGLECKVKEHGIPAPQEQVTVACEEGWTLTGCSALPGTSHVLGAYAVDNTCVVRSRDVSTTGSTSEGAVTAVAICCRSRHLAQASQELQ
# Sequence of human PCSK9 (Q8NBP7 31-152 partner limits assumed): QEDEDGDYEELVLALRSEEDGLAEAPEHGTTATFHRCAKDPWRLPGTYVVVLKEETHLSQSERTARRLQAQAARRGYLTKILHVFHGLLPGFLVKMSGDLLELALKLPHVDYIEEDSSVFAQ
SMILES,Max % inhibition,IC50
"COC[C@@H]1NC(=O)[C@H](C)N(Cc2ccc(Cl)cc2Oc2ccc(-c3cncc(C4CCNCC4)c3)cc2)C(=O)C[C@@H](Cc2ccccc2)C(=O)N(C)[C@@H](C)CNC(=O)C[C@H](Cc2ccc(Cl)cc2)N(C)C1=O [Compound 137, (2S,5S,8S,13S,16R)-16-benzyl-1-(4-chloro-2-(4-(5-(piperidin-4-yl)pyridin-3-yl)phenoxy)benzyl)-8-(4-chlorobenzyl)-5-(methoxymethyl)-2,7,13,14-tetramethyl-1,4,7,11,14-pentaazacyclooctadecane-3,6,10,15,18-pentaone]",90.76%,8.4 nM
"CCn1c(-c2ccc(Oc3cc(Cl)ccc3CN3C(=O)C[C@@H](Cc4ccccc4)C(=O)N(C)[C@@H](C)CNC(=O)C[C@H](Cc4ccc(Cl)cc4)N(C)C(=O)[C@H](COC)NC(=O)[C@@H]3C)cc2)cnc1CN1CCCC1 [Compound 300, (2S,5S,8S,13S,16R)-16-benzyl-1-(4-chloro-2-(4-(1-ethyl-2-(pyrrolidin-1-ylmethyl)-1H-imidazol-5-yl)phenoxy)benzyl)-8-(4-chlorobenzyl)-5-(methoxymethyl)-2,7,13,14-tetramethyl-1,4,7,11,14-pentaazacyclooctadecane-3,6,10,15,18-pentaone]",80.60%,2.1 nM
"COC[C@@H]1NC(=O)[C@H](C)N(Cc2ccc(Cl)cc2Oc2ccc(-c3cnc(CN4CCCC4)n3C)cc2)C(=O)C[C@@H](Cc2cccc(F)c2)C(=O)N(C)[C@@H](C)CNC(=O)C[C@H](Cc2ccc(Cl)cc2)N(C)C1=O [Compound 155, (2S,5S,8S,13S,16R)-1-(4-chloro-2-(4-(1-methyl-2-(pyrrolidin-1-ylmethyl)-1H-imidazol-5-yl)phenoxy)benzyl)-8-(4-chlorobenzyl)-16-(3-fluorobenzyl)-5-(methoxymethyl)-2,7,13,14-tetramethyl-1,4,7,11,14-pentaazacyclooctadecane-3,6,10,15,18-pentaone]",98.43%,0.8 nM
"COC[C@@H]1NC(=O)[C@H](C)N(Cc2ccc(Cl)cc2Oc2ccc(-c3cnc(CN4CCCC4)n3C)cc2)C(=O)C[C@@H](Cc2ccccc2)C(=O)N(C)[C@@H](CCN(C)C)CNC(=O)C[C@H](Cc2ccc(Cl)cc2)N(C)C1=O [Compound 190, (2S,5S,8S,13S,16R)-16-benzyl-1-(4-chloro-2-(4-(1-methyl-2-(pyrrolidin-1-ylmethyl)-1H-imidazol-5-yl)phenoxy)benzyl)-8-(4-chlorobenzyl)-13-(2-(dimethylamino)ethyl)-5-(methoxymethyl)-2,7,14-trimethyl-1,4,7,11,14-pentaazacyclooctadecane-3,6,10,15,18-pentaone]",100.60%,32.6 nM
"COC[C@@H]1NC(=O)[C@H](C)N(Cc2ccc(Cl)cc2Oc2ccc(-c3cnc4n3CCNC4)cc2)C(=O)C[C@@H](Cc2ccccc2)C(=O)N(C)[C@@H](C)CNC(=O)C[C@H](Cc2ccc(Cl)cc2)N(C)C1=O.O=C(O)C(F)(F)F [Compound 121, (2S,5S,8S,13S,16R)-16-benzyl-1-(4-chloro-2-(4-(5,6,7,8-tetrahydroimidazo[1,2-a]pyrazin-3-yl)phenoxy)benzyl)-8-(4-chlorobenzyl)-5-(methoxymethyl)-2,7,13,14-tetramethyl-1,4,7,11,14-pentaazacyclooctadecane-3,6,10,15,18-pentaone trifluoroacetate]",59.89%,2.8 nM
"C[C@H]1CNC(=O)C[C@H](Cc2ccc(Cl)cc2)N(C)C(=O)[C@H](CC(=O)N(C)C)NC(=O)[C@H](C)N(Cc2ccc(Cl)cc2Oc2ccc(-c3cnc(CN(C)C)n3C)cc2)C(=O)C[C@@H](Cc2ccccc2)C(=O)N1C [Compound 160, 2-((2S,5S,8S,13S,16R)-16-benzyl-1-(4-chloro-2-(4-(2-((dimethylamino)methyl)-1-methyl-1H-imidazol-5-yl)phenoxy)benzyl)-8-(4-chlorobenzyl)-2,7,13,14-tetramethyl-3,6,10,15,18-pentaoxo-1,4,7,11,14-pentaazacyclooctadecan-5-yl)-N,N-dimethylacetamide]",91.45%,7.6 nM

# Continued, values first:
Max % inhibition,IC50,SMILES
68.37%,9.4 nM,"CC[C@H](c1ncc(-c2ccc(Oc3cc(Cl)ccc3CN3C(=O)C[C@@H](Cc4ccccc4)C(=O)N(C)[C@H]4CCCC[C@@H]4NC(=O)C[C@H](Cc4ccc(Cl)cc4)N(C)C(=O)[C@H](COC)NC(=O)[C@@H]3C)cc2)n1C)N(C)C [Compound 268, (4S,7S,10S,14R,16aS,20aS)-14-benzyl-11-(4-chloro-2-(4-(2-((R)-1-(dimethylamino)propyl)-1-methyl-1H-imidazol-5-yl)phenoxy)benzyl)-4-(4-chlorobenzyl)-7-(methoxymethyl)-5,10,16-trimethylhexadecahydrobenzo[l][1,4,7,11,14]pentaazacyclooctadecine-2,6,9,12,15(3H)-pentaone]"
72.66%,247 nM,"COC[C@@H]1NC(=O)[C@H](C)N(Cc2ccc(Cl)cc2Oc2ccc(-c3cnc([C@H](C)N(C)C)n3C)cc2)C(=O)C[C@@H](Cc2ccccc2)C(=O)N(C)[C@H]2CCCC[C@@H]2NC(=O)C[C@H](Cc2ccc(Cl)cc2)N(C)C1=O [Compound 241, (4S,7S,10S,14R,16aS,20aS)-14-benzyl-11-(4-chloro-2-(4-(2-((S)-1-(dimethylamino)ethyl)-1-methyl-1H-imidazol-5-yl)phenoxy)benzyl)-4-(4-chlorobenzyl)-7-(methoxymethyl)-5,10,16-trimethylhexadecahydrobenzo[l][1,4,7,11,14]pentaazacyclooctadecine-2,6,9,12,15(3H)-pentaone]"
103.68%,0.7 nM,"COC[C@@H]1NC(=O)[C@H](C)N(Cc2ccc(Cl)cc2Oc2ccc(-c3cnc(CN(C)C)n3C)cc2)C(=O)C[C@@H](Cc2ccc(F)c(F)c2F)C(=O)N(C)[C@@H](C)[C@H](C)NC(=O)C[C@H](Cc2ccc(Cl)cc2)N(C)C1=O [Compound 293, (2S,5S,8S,12S,13S,16R)-1-(4-chloro-2-(4-(2-((dimethylamino)methyl)-1-methyl-1H-imidazol-5-yl)phenoxy)benzyl)-8-(4-chlorobenzyl)-5-(methoxymethyl)-2,7,12,13,14-pentamethyl-16-(2,3,4-trifluorobenzyl)-1,4,7,11,14-pentaazacyclooctadecane-3,6,10,15,18-pentaone]"
95.16%,172 nM,"COC[C@@H]1NC(=O)[C@H](C)N(Cc2ccc(Cl)cc2Oc2ccc(-c3cnc(CN(C)C)n3C)cc2)C(=O)C[C@H](Cn2cccn2)C(=O)N(C)[C@H]2CCCC[C@@H]2NC(=O)C[C@H](Cc2ccc(Cl)cc2)N(C)C1=O [Compound 2, (4S,7S,10S,14R,16aS,20aS)-14-((1H-pyrazol-1-yl)methyl)-11-(4-chloro-2-(4-(2-((dimethylamino)methyl)-1-methyl-1H-imidazol-5-yl)phenoxy)benzyl)-4-(4-chlorobenzyl)-7-(methoxymethyl)-5,10,16-trimethylhexadecahydrobenzo[l][1,4,7,11,14]pentaazacyclooctadecine-2,6,9,12,15(3H)-pentaone]"
